Laboratory results from patent US11426422B2, “SHP2 inhibitors and methods of use thereof” (Research Development Foundation, priority 2018, dated 2022).
Where no end group is shown, it is not given here. [ ]: non-standard residue; d: D form. pY = N[C@@H](Cc1ccc(OP(=O)(O)O)cc1)C(=O)O

Key:
[1] = system: HepG2 cells expressing IR-GFP WT; assay: insulin-activated IR endocytosis in HepG2 cells expressing IR-GFP WT (immunofluorescence, PM/IC ratio); format: cell-based; conditions: serum starved 14 h, inhibitor 2 h, then 100 nM insulin 20 min; BMS536924 2 μM, U0126 40 μM, SHP099 40 μM, AKT inhibitor VIII 5 μM, BI2536 200 nM, Reversine 1 μM
Protocol: (FIG. 2A) HepG2 cells expressing IR-GFP WT were starved, treated with the indicated inhibitors for 2 h, treated without or with 100 nM insulin for 20 min, and stained with anti-GFP (IR; green) and DAPI (blue). […] Quantification of the ratios of PM and IC IR-GFP signals of cells was shown (mean±SD; *p<0.0001).
To test whether the MAPK pathway and SHP2 might regulate the IRS1/2-AP2 interaction and IR endocytosis through modulating IRS1/2 phosphorylation patterns, the effects of inhibiting SHP2 or the MAPK pathway on insulin-activated IR endocytosis were examined (FIG. 2A and FIG. 7A).
For testing the effects of kinase inhibitors on IR endocytosis, the cells were serum starved for 14 h and inhibitors were added at 2 h before insulin treatment.

[2] = system: HepG2 cells expressing IR-GFP mutants; assay: cellular localization of IR-GFP mutants in HepG2 cells after inhibitors; format: cell-based; conditions: starved 14 h, inhibitors 4 h, no insulin; for PM levels of Class II IR mutants: R1020Q, V1054M, A1075D, V1086E, I1143T
Source text: FIGS. 4A-E. Dysregulation of IR endocytosis as a potential contributing factor to human insulin resistance syndromes. (FIG. 4A) Representative images of liver specimens from human non-diabetes and diabetes patients stained with DAPI (blue) and anti-IR (red) and anti-ZO-1 (green) antibodies. Scale bars, 40 μm. (FIG. 4B) Quantification of the percentage of cells with positive IR PM signals in liver specimens in FIG. 4A (mean±SD; *p<0.0001). (FIG. 4C) HepG2 cells stably expressing IR-GFP R1020Q, V1054M, A1075D, V1086E, or I1143T were serum starved and stained with anti-GFP and anti-RAB7 antibodies. Scale bar, 5 μm. (FIG. 4D) Quantification of the ratios of PM and IC IR-GFP signals of cells in FIG. 4C (mean±SD; *p<0.0001). (FIG. 4E) Targeting feedback regulation of IR endocytosis for diabetes treatment. Left panel depicts the feedback regulation of IR endocytosis by ERK1/2 and SHP2 during unperturbed insulin signaling.
FIGS. 9A-D. Characterization of IR mutations found in human patients. (FIG. 9A) HepG2 cells expressing IR-GFP Class I mutants (P997T, V1012M, A1055V, K1095E, R1119Q, H1157R, R1191Q, Y1361C, or R1378Q) were starved for 14 h, treated with the indicated inhibitors for 4 h, and stained with anti-GFP (IR; green) and DAPI (blue). Scale bar, 5 m. (FIG. 9B) HepG2 cells expressing IR-GFP Class II mutants (R1020Q, V1054M, A1075D, V1086E, or I1143T) were analyzed as described in FIG. 9A. (FIG. 9C) HepG2 cells expressing IR-GFP Class III mutants (A1162E or W1220L) were analyzed as described in A. (FIG. 9D) HepG2 cells expressing IR-GFP WT, R1020Q, or V1054M were serum starved for 14 h and treated with DMSO or 80 μM Dynasore for 4 h. Cell lysates were blotted with the indicated antibodies.
Mutations of IR are known to cause inherited severe insulin resistance syndromes, but the mechanisms by which these mutations affect IR function have not been systematically explored. HepG2 cell lines were generated which stably expressed IR mutants fused to GFP, and the subcellular localization of these IR-GFP proteins was examined (FIGS. 9A-C and Table 1).
There were three distinct classes of IR mutants based on their subcellular localization in the unstimulated state. Class I mutants localized to the PM. […] Thus, certain IR mutations found in human insulin resistance syndromes perturbs IR kinase regulation and causes premature IR endocytosis.
Cellular localization of IR mutants was examined after inhibiting the SHP2 or MAPK pathways (FIGS. 4C-D, and FIGS. 9A-C).
Indirect immunofluorescence microscopy was performed on cells grown on coverslips and fixed in cold methanol at −20° C. for 10 min. The fixed cells were incubated with PBS for 30 min and 3% BSA in 0.1% PBST for 1 h, and then treated with diluted antibodies in 0.3% BSA in 0.1% PBST at 4° C. overnight. After being washed, cells were incubated with fluorescent secondary antibodies and mounted on microscope slides in ProLong Gold Antifade reagent with DAPI (Invitrogen). Images of fixed cells were acquired as a series of 0.4 m stacks with a DeltaVision® system (Applied Precision®, Issaquah, Wash.). Raw images were deconvolved using the iterative algorithm implemented in the softWoRx® software (Applied Precision®, Issaquash, Wash.). The central section of a 0.4 μm z-stack containing 3 contiguous focal planes was used for quantification. The cell edges were defined with Image J. The whole cell signal intensity (WC) and intracellular signal intensity (IC) were measured. The plasma membrane signal intensity (PM) was calculated by subtracting IC from WC. Identical exposure times and magnifications were used for all comparative analyses.

[3] = target: T1, AP2M1 (residues 160-435) (Homo sapiens, UniProt Q96CW1); assay: isothermal titration calorimetry (ITC) of IRS1 peptides with AP2M1; format: binding; conditions: 20° C., HEPES buffer pH 7.5
T1 construct: The AP2M1 fragment (residues 160-435) was cloned into a modified pET28a; His6 (N, cleaved yes); made in house; host or cells: E. coli BL21(DE3)
T1 sequence (Q96CW1 160-435): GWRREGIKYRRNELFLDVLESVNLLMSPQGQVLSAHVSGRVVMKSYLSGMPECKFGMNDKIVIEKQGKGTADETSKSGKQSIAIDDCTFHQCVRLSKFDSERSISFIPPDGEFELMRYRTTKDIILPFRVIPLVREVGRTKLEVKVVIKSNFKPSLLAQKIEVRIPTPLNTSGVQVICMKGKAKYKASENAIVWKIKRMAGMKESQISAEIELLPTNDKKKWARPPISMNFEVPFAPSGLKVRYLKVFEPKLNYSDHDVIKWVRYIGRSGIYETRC
Source text: The unphosphorylated and phosphorylated IRS1 peptides containing 612YMPMS (SEQ ID NO:7) FIG. 7B) were chemically synthesized and used for in vitro pull-down assays to examine their binding to AP2M1 (FIG. 2B). […] Thus, phosphorylation of IRS1 by ERK1/2 enhances IRS1 binding to AP2M1.
The AP2M1 fragment (residues 160-435) was cloned into a modified pET28a that introduced an N-terminal His6-tag followed by a thrombin cleavage site. The plasmid was transformed into BL21(DE3) E. coli cells. Protein expression was induced by 0.2 mM IPTG at 20° C. overnight. The harvested pellets were lysed in the lysis buffer II (20 mM Tris-HCl, pH 7.5, 500 mM NaCl, 20 mM Imidazole, 1 mM PMSF). After sonication, lysates were cleared by centrifugation at 4° C. The supernatants were filtered by […] filter and incubated with pre-equilibrated Ni2+-NTA beads (Qiagen®). […]
(§1) For GST pull-down assays of in vitro translated (IVT) IRS1 proteins, beads bound to GST-AP2M1 or GST were incubated with IVT products diluted in the cell lysis buffer at 4° C. for 2 h. After incubation and washing, proteins bound to beads were eluted with the SDS loading buffer, resolved with SDS-PAGE, and detected with Coomassie staining or immunoblotting with the appropriate antibodies. […]

[4] = target: T1, AP2M1 (residues 160-435); assay: in vitro peptide pull-down of AP2M1 with IRS1 peptides; format: binding; conditions: peptide beads pull-down, SDS-PAGE, Coomassie
Protocol: FIGS. 2A-I. The MAPK pathway and SHP2 promote insulin-activated IR endocytosis. (FIG. 2A) HepG2 cells expressing IR-GFP WT were starved, treated with the indicated inhibitors for 2 h, treated without or with 100 nM insulin for 20 min, and stained with anti-GFP (IR; green) and DAPI (blue). See also FIG. 7A for representative images. Quantification of the ratios of PM and IC IR-GFP signals of cells was shown (mean±SD; *p<0.0001). (FIG. 2B) Binding of IRS1 peptides to AP2M1 (residues 160-435). Input and proteins bound to IRS1-peptide beads were analyzed by SDS-PAGE and stained with Coomassie (CBB). The relative band intensities are shown below (mean±SD; n=4 independent experiments). (FIG. 2C) ITC analysis of binding between IRS1 peptides and AP2M1 (residue 160-435), with the Kd indicated. (FIG. 2D) The IRS1 peptides were incubated with active SHP2 for the indicated durations, spotted onto membranes, and detected with the anti-pY612-IRS1 antibody. (FIG. 2E) Quantification of the relative SHP2 activity in FIG. 2D (mean±SD; n=4 independent experiments; *p<0.0001). (FIG. 2F) Model of the regulation of insulin-activated IR endocytosis by a phosphorylation switch on IRS1/2. Insulin-bound IR phosphorylates itself and IRS1/2, and activates the PI3K-AKT and MAPK pathways. SHP2 acts upstream of RAS-RAF and promotes the activation of MAPK pathway. p31^comet binds to the IR-bound MAD2 and blocks IR-AP2 association to prevent premature IR endocytosis. In feedback regulation, activated ERK1/2 phosphorylate S616 and other sites on IRS1. […]
as §1

Compound	insulin-activated IR endocytosis (ratio of PM and IC IR-GFP signals) [1]	PM levels of Class II IR mutants [2]	other results
O=c1[nH]c2ccccc2n1C1CCN(Cc2ccc(-c3nc4cc5[nH]cnc5cc4nc3-c3ccccc3)cc2)CC1 [AKTi, VIII]	did not affect IR endocytosis		
N#CC(=C(/N)Sc1ccccc1N)/C(C#N)=C(\N)Sc1ccccc1N [Compound U0126]	blocked IR endocytosis	significantly enhanced the PM levels of Class II IR mutants	PM levels of Class I and III IR mutants [2]: not those of Class I and III IR mutants
O=C(N/N=C/c1ccc(O)c(O)c1)c1cc2ccccc2cc1O [dynasore]		elevated the IR signal of Class II mutants at the PM	
CHTDDGYMPMSPGVA [YMPMS]			Kd [3]: 2030 nM
c1nc2nc(Nc3ccc(N4CCOCC4)cc3)nc(NC3CCCCC3)c2[nH]1 [Reversine]	did not appreciably inhibit IR endocytosis		
pYMPMS: singly phosphorylated IRS1 peptide CHTDDGpYMPMSPGVA (SEQ ID NO:12) (CHTDDG[pY]MPMSPGVA)			binding to AP2M1 [4]: abolished AP2M1 binding
AMPAS: mutant IRS1 peptide CHTDDGAMPASPGVA (SEQ ID NO:10), Y612 and M615 replaced by alanine			binding to AP2M1 [4]: did not
Cc1cc(N2CCOCC2)cc2[nH]c(-c3c(NC[C@@H](O)c4cccc(Cl)c4)cc[nH]c3=O)nc12 [BMS536924]	blocked IR endocytosis	restored Class II IR mutants at the PM	
